Results published in ChEMBL document CHEMBL1135522, “Novel retinoid X receptor antagonists: specific inhibition of retinoid synergism in RXR-RAR heterodimer actions” (2002).

How the values were obtained:
[1] = system: HL-60; assay: Percentage of human promyelocytic leukemia cells HL-60 differentiation induced by Am80 RAR agonist; format: functional
[2] = system: HL-60; assay: Percentage inhibition of human promyelocytic leukemia cells HL-60 differentiation induced by combined RAR and RXR agonists; Range is from 34-73; format: functional

| SMILES | Inhibition [1] | Inhibition [2] |
| --- | --- | --- |
| CCCCCOc1cc2c(cc1N(C)c1ncc(C(=O)O)cn1)C(C)(C)CCC2(C)C | 44% | – |
| CC1(C)CCC(C)(C)c2cc(N(CC3CC3)c3ncc(C(=O)O)cn3)ccc21 | – | 73% |
